These results are taken from patent US7364900B2, “Multi-lineage directed induction of bone marrow stromal cell differentiation” (University of Medicine and Dentistry of New Jersey, priority 2001, dated 2008).

This assay relates to rMSCs. Kind of assay: Induction of nestin-positive endodermal/neuronal precursor cells from marrow stromal cells. It counts as cell-based, rat. As to conditions: sub-confluent rMSCs, pre-induction media supplemented with 1 mM BME, 24 hours. How it is done:
Rat MSCs are originally cultured in alpha-Modified Eagle's Medium (alpha-MEM) supplemented with 20% FBS, 2 mM L-glutamine, 100 units per milliliter penicillin, 100 […] streptomycin and 25 nanograms per milliliter amphotericin B. For each passage the cells are plated at about 8,000 cells per square centimeter and grown to confluency. At passage 6 the cells are transferred to DMEM (pH 8.0)/20% FBS without additional supplementation, and maintained beyond passage 14. Subconfluent cultures of rat and human MSCs are maintained in DMEM/20% FBS.
Twenty-four hours before induction of partial differentiation to nestin-positive precursor cells, medium is replaced with a pre-induction medium consisting of DMEM, 20% FBS and 1 millimolar β-mercaptoethanol. The cells are then transferred to a serum free endodermal/neuronal precursor induction medium composed of DMEM and 1-10 millimolar β-mercaptoethanol. […] To effect further differentiation to pancreatic islet cell phenotype, the partially differentiated nestin-positive endodermal/neuronal precursor cells are transferred to serum-free DMEM containing 1-10 mM β-mercaptoethanol with and without 10 nanograms/ml basic fibroblast growth factor (bFGF).
rMSCs are initially maintained in sub-confluent cultures in pre-induction media supplemented with 1 mM beta-mercaptoethanol (BME) for 24 hours. […]

As to `OCCS` [BME, beta-mercaptoethanol], the changes in morphology result is “no changes in morphology are evident”.
